From ChEMBL document CHEMBL1123148, “Improved synthesis of 2'-deoxyformycin A and studies of its in vitro activity against mouse lymphoma of T-cell origin” (J Med Chem, 1985)

Columns and labels:
[1] = Compound along with 10 uM of erythro-9-(2-hydroxy-3-nonyl)adenine (EHNA) was tested against mouse lymphoma T-cells; assay type: functional
[2] = Compound evaluated for the inhibitory concentration of S49 Mouse Lymphoma T-cells; assay type: functional, cell-based

IC50 [1] [µM]	IC50 [2] [µM]	SMILES
9.3	13.5	Nc1ncnc2c([C@H]3C[C@H](O)[C@@H](CO)O3)n[nH]c12
4.5	180	Nc1ncnc2c1ncn2[C@H]1C[C@H](O)[C@@H](CO)O1 [DEOXYADENOSINE]
0.03	2.3	Nc1ncnc2c([C@@H]3O[C@H](CO)[C@@H](O)[C@H]3O)[nH]nc12 [FORMYCIN]
